The test can be described thus: Relative activity on the cellular accumulation of vincristine in multidrug-resistant (MDR) human ovarian cancer 2780AD cells. It counts as functional, A2780 ADR.

The structures appear in SMILES notation.

`CC(=O)O[C@H]1[C@@H]2[C@H](C)[C@@H](OC(=O)CCc3ccccc3)CC[C@@]2(C)[C@@H](OC(C)=O)[C@H](OC(C)=O)C2=C(C)C(=O)C[C@@H]1C2(C)C` came in with a Relative activity of 44.

The molecule `C=C1[C@@H](OC(=O)CCC2CCCCC2)CC[C@@]2(C)[C@@H](OC(C)=O)[C@H](OC(C)=O)C3=C(C)C(=O)C[C@@H]([C@@H](OC(C)=O)[C@H]12)C3(C)C` registered a Relative activity of 97.

For `C=C1[C@@H](OC(=O)CCc2ccccc2)CC[C@@]2(C)[C@@H](OC(C)=O)[C@H](OC(C)=O)C3=C(C)C(=O)C[C@@H]([C@@H](OC(C)=O)[C@H]12)C3(C)C`, the Relative activity is reported as 227.

`C=C1[C@@H](OC(C)=O)CC[C@@]2(C)[C@@H](OC(C)=O)[C@H](OC(C)=O)C3=C(C)C(=O)C[C@@H]([C@@H](OC(C)=O)[C@H]12)C3(C)C` showed a Relative activity of 93.

`C=C1[C@@H](OC(=O)/C=C/c2ccccc2)CC[C@@]2(C)[C@@H](OC(C)=O)[C@H](OC(C)=O)C3=C(C)C(=O)C[C@@H]([C@@H](OC(C)=O)[C@H]12)C3(C)C` yielded a Relative activity of 77.

Regarding `CC(=O)O[C@H]1[C@@H]2[C@H](C)[C@@H](OC(=O)/C=C/c3ccccc3)CC[C@@]2(C)[C@@H](OC(C)=O)[C@H](OC(C)=O)C2=C(C)C(=O)C[C@@H]1C2(C)C`, the Relative activity is reported as 44.

`CC(=O)O[C@H]1[C@@H]2[C@H](C)[C@@H](O)CC[C@@]2(C)[C@@H](OC(C)=O)[C@H](OC(C)=O)C2=C(C)C(=O)C[C@@H]1C2(C)C` registered a Relative activity of 48.

With `C=C1[C@@H](OCOCc2ccccc2)CC[C@@]2(C)[C@@H](OC(C)=O)[C@H](OC(C)=O)C3=C(C)C(=O)C[C@@H]([C@@H](OC(C)=O)[C@H]12)C3(C)C`, the Relative activity is 158.

Turning to `C=C1[C@@H](O)CC[C@@]2(C)[C@@H](OC(C)=O)[C@H](OC(C)=O)C3=C(C)C(=O)C[C@@H]([C@@H](OC(C)=O)[C@H]12)C3(C)C` [TAXININE A], the Relative activity is given as 64.

On to `COc1ccc(CCN(C)CCCC(C#N)(c2ccc(OC)c(OC)c2)C(C)C)cc1OC` (stereo not given) [VERAPAMIL], for which the Relative activity came to 100.

The values are drawn from ChEMBL document CHEMBL1132679, “Highly increased cellular accumulation of vincristine, a useful hydrophobic antitumor-drug, in multidrug-resistant solid cancer cells induced by a simply reduced taxinine” (1999).
